# From patent US10597388B2, “Pyridazinone herbicides” (FMC CORPORATION, priority 2014, dated 2020)
# Columns and labels:
# Type in all cases: in vivo
# corn (Zea mays) = experiment: Test A greenhouse herbicide test, pre- and postemergence; settings: Postemergence; for Plant response rating, Corn: 125 g ai/ha, 0 to 100 scale where 0 is no effect and 100 is complete control; for Corn plant response rating: 500 g ai/ha, 0 to 100 scale, 0 is no effect, 100 is complete control
# Outline: (§1)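 Seeds in loam–sand blend received a preemergence directed soil spray; plants at 2–10 cm, one- to two-leaf stage, received postemergence sprays. Compounds in a non-phytotoxic solvent with surfactant. After about 10 d in a greenhouse, injury rated visually versus untreated controls on a 0–100 scale (100 = complete control).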
# [1] = system: foxtail, giant (giant foxtail, Setaria faberii); experiment: as above
# Outline: as §1
# kochia (Kochia scoparia) = experiment: as above
# Outline: as §1
# [2] = system: ragweed (common ragweed, Ambrosia elatior); experiment: as above
# Outline: as §1
# [3] = system: ryegrass, Italian (Italian ryegrass, Lolium multiflorum); experiment: as above
# Outline: as §1
# [4] = system: wheat (Triticum aestivum); experiment: as above; settings: Postemergence; for Plant response rating, Wheat: 125 g ai/ha, 0 to 100 scale where 0 is no effect and 100 is complete control; for Wheat plant response rating: 500 g ai/ha, 0 to 100 scale, 0 is no effect, 100 is complete control
# Outline: as §1
# [5] = system: blackgrass (Alopecurus myosuroides); experiment: Test A greenhouse herbicide test, postemergence; settings: for Plant response rating, Blackgrass: 125 g ai/ha, 0 to 100 scale where 0 is no effect and 100 is complete control; for Blackgrass plant response rating: 500 g ai/ha, 0 to 100 scale, 0 is no effect, 100 is complete control
# Outline: (§2)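 Visual injury score, 0 (no effect) to 100 (complete control), versus untreated controls roughly 10 d after postemergence spray; plants at one- to two-leaf stage, 2 to 10 cm tall, in loam soil and sand, kept in greenhouse.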
# [6] = system: galium (catchweed bedstraw, Galium aparine); experiment: Test A greenhouse herbicide test, postemergence; settings: for Plant response rating, Galium: 125 g ai/ha, 0 to 100 scale where 0 is no effect and 100 is complete control; for Galium plant response rating: 500 g ai/ha, 0 to 100 scale, 0 is no effect, 100 is complete control
# Outline: as §2
# [7] = system: galium (catchweed bedstraw, Galium aparine); experiment: Test C greenhouse herbicide test, pre- and postemergence
# Outline: (§3)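 Visual ratings on a 0 to 100 scale (0 = no effect, 100 = complete control) versus untreated controls, scored 13–15 d after treatment. Soil-applied preemergence to seeded loam/sand; foliar postemergence to 1- to 4-leaf plants (2–18 cm) in peat-vermiculite mix; compounds formulated in solvent plus surfactant.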
# [8] = system: ragweed (common ragweed, Ambrosia elatior); experiment: as above
# Outline: as §3
# [9] = system: ryegrass, Italian (Italian ryegrass, Lolium multiflorum); experiment: as above
# Outline: as §3
# soybean (Glycine max) = experiment: as above
# Outline: as §3
# [10] = Postemergence, 125 g ai/ha, 0 to 100 scale where 0 is no effect and 100 is complete control
# [11] = Postemergence, 500 g ai/ha, 0 to 100 scale, 0 is no effect, 100 is complete control
# [12] = Preemergence, 125 g ai/ha, 0 to 100 scale where 0 is no effect and 100 is complete control
# [13] = Preemergence, 500 g ai/ha, 0 to 100 scale, 0 no effect, 100 complete control
# [14] = Postemergence, 31 g ai/ha, 0 to 100 scale (0 no effect, 100 complete control)
# [15] = Postemergence, 125 g ai/ha, scale 0 to 100, 0 is no effect, 100 is complete control
# [16] = Postemergence, 250 g ai/ha, scale 0 to 100, 0 no effect, 100 complete control, 13 to 15 d
# [17] = Preemergence, 31 g ai/ha, scale 0 to 100, 0 is no effect, 100 is complete control
# [18] = Preemergence, 62 g ai/ha, scale 0 to 100, 0 is no effect, 100 is complete control
# [19] = Preemergence, 125 g ai/ha, scale 0 to 100, 0 is no effect, 100 is complete control
# [20] = Preemergence, 250 g ai/ha, scale 0 to 100 (0 no effect, 100 complete control)
# [21] = postemergence, 62 g ai/ha, scale 0 to 100, 0 no effect, 100 complete control
smiles,measurement,setting,value
CCC(=O)Oc1c(C)nn(C)c(=O)c1-c1c(C)sc2ccc(C)cc12 [Compound 42],"Plant response rating, Corn",corn (Zea mays),0
same,Corn plant response rating,corn (Zea mays),20
same,"Plant response rating, Foxtail, Giant",[1]; [10],90
same,"Foxtail, Giant plant response rating",[1]; [11],100
same,"Foxtail, Giant plant response rating",[1]; [12],80
same,"Plant response rating, Foxtail, Giant",[1]; [13],100
same,"Plant response rating, Kochia",kochia (Kochia scoparia); [10],100
same,Kochia plant response rating,kochia (Kochia scoparia); [11],100
same,Kochia plant response rating,kochia (Kochia scoparia); [12],80
same,"Plant response rating, Kochia",kochia (Kochia scoparia); [13],100
same,"Plant response rating, Ragweed",[2]; [10],100
same,Ragweed plant response rating,[2]; [11],100
same,Ragweed plant response rating,[2]; [12],90
same,"Plant response rating, Ragweed",[2]; [13],100
same,"Plant response rating, Ryegrass, Italian",[3]; [10],100
same,"Ryegrass, Italian plant response rating",[3]; [11],100
same,"Ryegrass, Italian plant response rating",[3]; [12],100
same,"Plant response rating, Ryegrass, Italian",[3]; [13],100
same,"Plant response rating, Wheat",[4],0
same,Wheat plant response rating,[4],20
same,"Plant response rating, Blackgrass",[5],80
same,Blackgrass plant response rating,[5],90
same,"Plant response rating, Galium",[6],100
same,Galium plant response rating,[6],100
same,Galium plant response rating,[7]; [14],95
same,"Plant response rating, Galium",[7]; [15],100
same,"Plant response rating, Galium",[7]; [16],95
same,"Plant response rating, Galium",[7]; [17],90
same,"Plant response rating, Galium",[7]; [18],90
same,"Plant response rating, Galium",[7]; [19],95
same,Galium plant response rating,[7]; [20],98
same,Galium plant response rating,[7]; [21],90
same,Ragweed plant response rating,[8]; [14],90
same,"Plant response rating, Ragweed",[8]; [15],98
same,"Plant response rating, Ragweed",[8]; [16],100
same,"Plant response rating, Ragweed",[8]; [17],90
same,"Plant response rating, Ragweed",[8]; [18],90
same,"Plant response rating, Ragweed",[8]; [19],95
same,Ragweed plant response rating,[8]; [20],100
same,Ragweed plant response rating,[8]; [21],85
same,"Ryegrass, Italian plant response rating",[9]; [14],65
same,"Plant response rating, Ryegrass, Italian",[9]; [15],90
same,"Plant response rating, Ryegrass, Italian",[9]; [16],95
same,"Plant response rating, Ryegrass, Italian",[9]; [17],85
same,"Plant response rating, Ryegrass, Italian",[9]; [18],90
same,"Plant response rating, Ryegrass, Italian",[9]; [19],90
same,"Ryegrass, Italian plant response rating",[9]; [20],90
same,"Ryegrass, Italian plant response rating",[9]; [21],90
same,Soybean plant response rating,soybean (Glycine max); [14],0
same,"Plant response rating, Soybean",soybean (Glycine max); [15],10
same,"Plant response rating, Soybean",soybean (Glycine max); [16],15
same,"Plant response rating, Soybean",soybean (Glycine max); [17],35
same,"Plant response rating, Soybean",soybean (Glycine max); [18],0
same,"Plant response rating, Soybean",soybean (Glycine max); [19],0
same,Soybean plant response rating,soybean (Glycine max); [20],5
same,Soybean plant response rating,soybean (Glycine max); [21],5
Cc1cc(C)c2ccccc2c1-c1c(O)cnn(C)c1=O [Compound 51],"Plant response rating, Corn",corn (Zea mays),0
same,Corn plant response rating,corn (Zea mays),0
same,"Plant response rating, Foxtail, Giant",[1]; [10],50
same,"Foxtail, Giant plant response rating",[1]; [11],80
same,"Foxtail, Giant plant response rating",[1]; [12],50
same,"Plant response rating, Foxtail, Giant",[1]; [13],90
same,"Plant response rating, Kochia",kochia (Kochia scoparia); [10],70
same,Kochia plant response rating,kochia (Kochia scoparia); [11],90
same,Kochia plant response rating,kochia (Kochia scoparia); [12],0
same,"Plant response rating, Kochia",kochia (Kochia scoparia); [13],30
same,"Plant response rating, Ragweed",[2]; [10],70
same,Ragweed plant response rating,[2]; [11],70
same,Ragweed plant response rating,[2]; [12],30
same,"Plant response rating, Ragweed",[2]; [13],80
same,"Plant response rating, Ryegrass, Italian",[3]; [10],60
same,"Ryegrass, Italian plant response rating",[3]; [11],90
same,"Ryegrass, Italian plant response rating",[3]; [12],50
same,"Plant response rating, Ryegrass, Italian",[3]; [13],90
same,"Plant response rating, Wheat",[4],0
same,Wheat plant response rating,[4],0
same,"Plant response rating, Blackgrass",[5],30
same,Blackgrass plant response rating,[5],60
same,"Plant response rating, Galium",[6],90
same,Galium plant response rating,[6],100
same,Galium plant response rating,[7]; [14],85
same,"Plant response rating, Galium",[7]; [15],90
same,"Plant response rating, Galium",[7]; [16],95
same,Galium plant response rating,[7]; [21],90
same,Ragweed plant response rating,[8]; [14],10
same,"Plant response rating, Ragweed",[8]; [15],5
same,"Plant response rating, Ragweed",[8]; [16],25
same,Ragweed plant response rating,[8]; [21],5
same,"Ryegrass, Italian plant response rating",[9]; [14],35
same,"Plant response rating, Ryegrass, Italian",[9]; [15],60
same,"Plant response rating, Ryegrass, Italian",[9]; [16],70
same,"Ryegrass, Italian plant response rating",[9]; [21],50
same,Soybean plant response rating,soybean (Glycine max); [14],0
same,"Plant response rating, Soybean",soybean (Glycine max); [15],0
same,"Plant response rating, Soybean",soybean (Glycine max); [16],0
same,Soybean plant response rating,soybean (Glycine max); [21],0
